Test results as given in patent US7989422B2, “Antibacterial agents” (Alchemia Limited, priority 2005, dated 2011).

Columns and labels:
Type in all cases: cell-based
[1] = tested on: Staphylococcus aureus ATCC 25923; experiment: MIC against S. aureus, microbroth dilution in MH broth, without or with 5% horse serum; settings: MIC class; S. aureus ATCC 25923
Outline: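 Single-concentration screen at 128 μg/mL in MH broth, then CLSI microbroth twofold dilution in MH broth without or with 5% heat-inactivated horse serum. Inoculum from 0.5 McFarland suspension diluted 1:10; plates incubated 35° C, non-CO2, 18-24 h, then scored for visible growth.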

[2] = tested on: Staphylococcus aureus (MRSA) ATCC 33591; experiment: MIC against MRSA, microbroth dilution; settings: MIC class
Outline: (§1)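 CLSI microbroth dilution in Mueller Hinton broth, compounds diluted from a 128 μg/mL test solution. Wells received 5 μL of a 1:10 dilution of a 0.5 McFarland suspension and were incubated 18-24 h at 35° C without CO2, then examined for growth. Each well was then subcultured onto horse blood agar for another 18-24 h.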

[3] = tested on: Enterococcus faecium ATCC 35667; experiment: MIC against E. faecium, microbroth dilution; settings: MIC class
Outline: as §1

[4] = tested on: E. Faecium 51299 VanB; experiment: MIC against vancomycin-resistant enterococcus 51299 (VanB), microbroth dilution; settings: MIC class; ATCC 51299 VanB
Outline: as §1

[5] = tested on: Enterococcus faecalis ATCC 29212; experiment: MIC against E. faecalis, microbroth dilution; settings: MIC class
Outline: as §1

| Compound | S. Aureus 25923 activity [1] | S. Aureus 33591 MRSA activity [2] | E. Faecium 35667 activity [3] | E. Faecium 51299 VanB activity [4] | E. Fecalis 29212 activity [5] |
| --- | --- | --- | --- | --- | --- |
| O=C(Nc1ccc(Cl)c(C(F)(F)F)c1)NC1COC(CO)C(n2c(Nc3ccc(-c4ccccc4)cc3)nc3cc(C(F)(F)F)cc(Cl)c32)C1O (stereo not drawn) [Compound 254] | ++ (“++”: MIC (μg/mL): MIC ≦ 16) | ++ (“++”: MIC (μg/mL): MIC ≦ 16) | − (“−”: MIC (μg/mL): MIC > 64) | − (“−”: MIC (μg/mL): MIC > 64) | − (“−”: MIC (μg/mL): MIC > 64) |
| NC(Cc1ccc(-c2ccccc2)cc1)C(=O)NC1C(CO)OCC(n2c(O)nc3cc(C(F)(F)F)cc(Cl)c32)C1O (stereo not drawn) [Compound 161] | + (“+”: MIC (μg/mL): 64 ≧ MIC > 16) | + (“+”: MIC (μg/mL): 64 ≧ MIC > 16) | − (“−”: MIC (μg/mL): MIC > 64) | − (“−”: MIC (μg/mL): MIC > 64) | + (“+”: MIC (μg/mL): 64 ≧ MIC > 16) |
| CCCCCCCCCCCCC(N)C(=O)NC1C(CO)OCC(n2c(S)nc3cc(C(F)(F)F)ccc32)C1O (stereo not drawn) [Compound 182] | ++ (“++”: MIC (μg/mL): MIC ≦ 16) | ++ (“++”: MIC (μg/mL): MIC ≦ 16) | ++ (“++”: MIC (μg/mL): MIC ≦ 16) | ++ (“++”: MIC (μg/mL): MIC ≦ 16) | ++ (“++”: MIC (μg/mL): MIC ≦ 16) |
| CCCCCCCCCCNC1C(CO)OCC(NC(=O)Nc2ccc(Cl)c(C(F)(F)F)c2)C1O (stereo not drawn) [Compound 50] | + (“+”: MIC (μg/mL): 64 ≧ MIC > 16) | + (“+”: MIC (μg/mL): 64 ≧ MIC > 16) | + (“+”: MIC (μg/mL): 64 ≧ MIC > 16) | − (“−”: MIC (μg/mL): MIC > 64) | + (“+”: MIC (μg/mL): 64 ≧ MIC > 16) |
| O=C(Nc1ccc(Cl)c(C(F)(F)F)c1)NC1COC(CO)C(n2c(Nc3ccc(Cl)cc3)nc3cc(C(F)(F)F)cc(Cl)c32)C1O (stereo not drawn) [Compound 252] | + (“+”: MIC (μg/mL): 64 ≧ MIC > 16) | − (“−”: MIC (μg/mL): MIC > 64) | − (“−”: MIC (μg/mL): MIC > 64) | − (“−”: MIC (μg/mL): MIC > 64) | + (“+”: MIC (μg/mL): 64 ≧ MIC > 16) |
| CC(C)(C)c1ccc(CNc2nc3cc(C(F)(F)F)ccc3n2C2C(CO)OCC(NC(=O)Nc3ccc(Cl)c(C(F)(F)F)c3)C2O)cc1 (stereo not drawn) [Compound 248] | ++ (“++”: MIC (μg/mL): MIC ≦ 16) | ++ (“++”: MIC (μg/mL): MIC ≦ 16) | ++ (“++”: MIC (μg/mL): MIC ≦ 16) | ++ (“++”: MIC (μg/mL): MIC ≦ 16) | ++ (“++”: MIC (μg/mL): MIC ≦ 16) |
| NC(CC(=O)Nc1nc2cc(C(F)(F)F)ccc2n1C1C(CO)OCC(NC(=O)Nc2ccc(Cl)c(C(F)(F)F)c2)C1O)c1ccc(-c2ccccc2)cc1 (stereo not drawn) [Compound 238] | − (“−”: MIC (μg/mL): MIC > 64) | ++ (“++”: MIC (μg/mL): MIC ≦ 16) | − (“−”: MIC (μg/mL): MIC > 64) | − (“−”: MIC (μg/mL): MIC > 64) | ++ (“++”: MIC (μg/mL): MIC ≦ 16) |
| NC(Cc1ccc(-c2ccccc2)cc1)C(=O)Nc1nc2cc(C(F)(F)F)ccc2n1C1C(CO)OCC(NS(=O)(=O)c2ccc(C(F)(F)F)cc2)C1O (stereo not drawn) [Compound 241] | ++ (“++”: MIC (μg/mL): MIC ≦ 16) | ++ (“++”: MIC (μg/mL): MIC ≦ 16) | ++ (“++”: MIC (μg/mL): MIC ≦ 16) | + (“+”: MIC (μg/mL): 64 ≧ MIC > 16) | ++ (“++”: MIC (μg/mL): MIC ≦ 16) |
| CCCCCCCCCCCCC(N)C(=O)NC1C(CO)OCC(n2c(S)nc3cc(C(F)(F)F)cc(Cl)c32)C1O (stereo not drawn) [Compound 186] | ++ (“++”: MIC (μg/mL): MIC ≦ 16) | + (“+”: MIC (μg/mL): 64 ≧ MIC > 16) | − (“−”: MIC (μg/mL): MIC > 64) | − (“−”: MIC (μg/mL): MIC > 64) | + (“+”: MIC (μg/mL): 64 ≧ MIC > 16) |
| O=C(Nc1ccc(Cl)c(C(F)(F)F)c1)NC1COC(CO)C(n2c(NCc3ccc4ccccc4c3)nc3cc(C(F)(F)F)ccc32)C1O (stereo not drawn) [Compound 251] | ++ (“++”: MIC (μg/mL): MIC ≦ 16) | ++ (“++”: MIC (μg/mL): MIC ≦ 16) | ++ (“++”: MIC (μg/mL): MIC ≦ 16) | ++ (“++”: MIC (μg/mL): MIC ≦ 16) | ++ (“++”: MIC (μg/mL): MIC ≦ 16) |
| Nc1nc2cc(C(F)(F)F)cc(Cl)c2n1C1COC(CO)C(NC(=O)C(N)Cc2ccc(-c3ccccc3)cc2)C1O (stereo not drawn) [Compound 163] | + (“+”: MIC (μg/mL): 64 ≧ MIC > 16) | + (“+”: MIC (μg/mL): 64 ≧ MIC > 16) | − (“−”: MIC (μg/mL): MIC > 64) | − (“−”: MIC (μg/mL): MIC > 64) | + (“+”: MIC (μg/mL): 64 ≧ MIC > 16) |
| O=C(Nc1ccc(Cl)c(C(F)(F)F)c1)NC1COC(CO)C(n2c(NCc3cccc(Oc4ccccc4)c3)nc3cc(C(F)(F)F)ccc32)C1O (stereo not drawn) [Compound 249] | ++ (“++”: MIC (μg/mL): MIC ≦ 16) | ++ (“++”: MIC (μg/mL): MIC ≦ 16) | ++ (“++”: MIC (μg/mL): MIC ≦ 16) | ++ (“++”: MIC (μg/mL): MIC ≦ 16) | ++ (“++”: MIC (μg/mL): MIC ≦ 16) |
| CCCCCCCCCCCCC(N)C(=O)NC1C(CO)OCC(Nc2ccc(C(F)(F)F)cc2N)C1O (stereo not drawn) [Compound 207] | + (“+”: MIC (μg/mL): 64 ≧ MIC > 16) | + (“+”: MIC (μg/mL): 64 ≧ MIC > 16) | + (“+”: MIC (μg/mL): 64 ≧ MIC > 16) | + (“+”: MIC (μg/mL): 64 ≧ MIC > 16) | + (“+”: MIC (μg/mL): 64 ≧ MIC > 16) |
| Nc1ccccc1OC1C(NC(=O)Nc2ccc(Cl)c(C(F)(F)F)c2)COC(CO)C1NC(=O)C(N)Cc1ccc(-c2ccccc2)cc1 (single isomer, unassigned) [Compound 70] | + (“+”: MIC (μg/mL): 64 ≧ MIC > 16) | ++ (“++”: MIC (μg/mL): MIC ≦ 16) | + (“+”: MIC (μg/mL): 64 ≧ MIC > 16) | − (“−”: MIC (μg/mL): MIC > 64) | + (“+”: MIC (μg/mL): 64 ≧ MIC > 16) |
| Nc1ccccc1OC1C(NC(=O)Nc2ccc(Cl)c(C(F)(F)F)c2)COC(CO)C1NS(=O)(=O)c1ccc(-c2ccccc2)cc1 (stereo not drawn) [Compound 62] | + (“+”: MIC (μg/mL): 64 ≧ MIC > 16) | ++ (“++”: MIC (μg/mL): MIC ≦ 16) | − (“−”: MIC (μg/mL): MIC > 64) | − (“−”: MIC (μg/mL): MIC > 64) | − (“−”: MIC (μg/mL): MIC > 64) |
